Test results taken from patent US4215215A, “9-Phenyl-nonate traene compounds” (Hoffmann-La Roche Inc., priority 1979, dated 1980).

Legend:
in vivo = conditions: mouse, ip, mice; for LD50 at 24 h: After 1 day; for LD50 at 24 h / LD50 at 240 h / LD50 at 480 h: intraperitoneal, in rape-oil; for LD50 at 240 h: After 10 days; for LD50 at 480 h: After 20 days; for LD50: intraperitoneal administration in rape-oil, no time stated, read-out: acute toxicity [LD50]
papillomas = experiment: Papilloma test (tumors induced with dimethylbenzanthracene and croton oil); assay type: in vivo; conditions: intraperitoneal, within 2 weeks
Text: The compounds of formula I are effective for utilizing tumors such as papillomas. In the papilloma test, tumors induced with dimethylbenzanthracene and croton oil regress. The diameters of the papillomae decline within 2 weeks on intraperitoneal administration.

SMILES | LD50 at 24 h (in vivo) [mg/kg] | LD50 at 240 h (in vivo) [mg/kg] | LD50 at 480 h (in vivo) [mg/kg] | LD50 (in vivo) [mg/kg] | decline of the diameters of the papillomae (papillomas; 25 mg/kg/week) [%] | decline of the diameters of the papillomae (papillomas; 50 mg/kg/week) [%] | decline of the diameters of the papillomae (papillomas; 100 mg/kg/week) [%]
CCOC(=O)C=C(C)C=CC=C(C)C=Cc1c(C)cc(OC)c(C)c1C [Substance B, 9-(4-methoxy-2,3,6-trimethyl-phenyl)-3,7-dimethyl-nona-2,4,6,8-tetraen-1-oic acid ethyl ester] | > 4000 | 1900 | 1000 | 1000 | 45 | 63 | –
COc1cc(C)c(C=CC(C)=CC=CC(C)=CC(=O)O)c(C)c1C [Substance A, 9-(4-methoxy-2,3,6-trimethyl-phenyl)-3,7-dimethyl-nona-2,4,6,8-tetraen-1-oic acid] | > 4000 | 700 | 700 | 700 | – | 38 | 69
